{"source": "patent US7033593B2", "about": "“Immunogen comprising an HIV envelope protein, a ligand and H2 peptide” (priority 2000, dated 2006)", "key": {"sCD4": {"molecular_target": "T1, sCD4 (Homo sapiens, UniProt P01730)", "T1 construct": "Soluble CD4 (sCD4) was produced by Progenics, Tarrytown, N.Y; purchased Progenics (provided by the Division of AIDS, NIAID, NIH)", "format": "binding", "conditions": "SPR"}, "A32-gp120 (89.6 gp120)": {"molecular_target": "A32-gp120 (89.6 gp120) (Human immunodeficiency virus type 1 group M subtype B, UniProt Q73372)", "conditions": "DP178 pre-incubated with peptide", "from_the_text": "FIGS. 31A–31F. […] Data are representative of 3 separate experiments performed. Data presented for C4-V389.6P and C4-V3MN are taken from two separate experiments. (FIG. 31F) Schematic.\nThe gp120 C4 region is centrally located within the CCR5 binding site in the β20–β21 strands of the gp120 bridging sheet (Wyatt et al, J. Virol. 69:5723–5733 (1995))."}, "[1]": {"system": "HIV-1 induced syncytia formation", "assay": "HIV-1 induced syncytia formation", "format": "cell-based", "conditions": "50–200 μg/ml"}, "[2]": {"system": "CD4-gp140 complex (89.6 gp140 oligomers)", "conditions": "on CD4-gp140 complex", "procedure": "FIG. 10C. CD4-gp140 complexes (indicated by arrow) were first formed by injecting soluble 89.6 gp140 oligomers over a CD4-immobilized surface. Then the CCR5 N-terminal peptide (D1) was injected to monitor its binding to CD4-gp140 complexes.\nFIG. 10D. An overlay of the binding curves of CCR5 N-terminal peptide, D1, binding to 89.6 gp140 oligomers in the presence and absence of CD4. […] To ensure that all gp140 molecules were bound to CD4, cleaved gp140 proteins were captured on a CD4 immobilized sensor surface (RU=530), and soluble 89.6 gp140 proteins were directly immobilized (RU=3300) on an adjacent flow cell of the same sensor chip.\n(§1) SPR biosensor measurements were determined on a BIACORE 3000 (BIACORE Inc., Uppsala, Sweden) instrument. […] Binding of proteins and peptides was monitored in real-time at 25° C. and with a continuous flow of PBS, pH 7.4 at […]. Analyte (proteins and peptides) were removed and the sensor surfaces were regenerated following each cycle of binding by single or duplicate […] of regeneration solution (10 mM glycine-HCl, pH 2.5 or 10 mM NaOH).\n(§2) All analyses were performed using the non-linear fit method of O'Shannessy et al. (O'Shannessy et al, Anal. Biochem. 205:132–136 (1992)) and the BIAevaluation 3.0 software (BIACORE Inc). Rate and equilibrium constants were derived from curve fitting to the Langmuir equation for a simple bimolecular interaction (A+B=AB)."}, "[3]": {"molecular_target": "cleaved gp140 oligomers (HIV 89.6) (Human immunodeficiency virus type 1 group M subtype B, UniProt Q73372)", "sequence (Q73372 32-681)": "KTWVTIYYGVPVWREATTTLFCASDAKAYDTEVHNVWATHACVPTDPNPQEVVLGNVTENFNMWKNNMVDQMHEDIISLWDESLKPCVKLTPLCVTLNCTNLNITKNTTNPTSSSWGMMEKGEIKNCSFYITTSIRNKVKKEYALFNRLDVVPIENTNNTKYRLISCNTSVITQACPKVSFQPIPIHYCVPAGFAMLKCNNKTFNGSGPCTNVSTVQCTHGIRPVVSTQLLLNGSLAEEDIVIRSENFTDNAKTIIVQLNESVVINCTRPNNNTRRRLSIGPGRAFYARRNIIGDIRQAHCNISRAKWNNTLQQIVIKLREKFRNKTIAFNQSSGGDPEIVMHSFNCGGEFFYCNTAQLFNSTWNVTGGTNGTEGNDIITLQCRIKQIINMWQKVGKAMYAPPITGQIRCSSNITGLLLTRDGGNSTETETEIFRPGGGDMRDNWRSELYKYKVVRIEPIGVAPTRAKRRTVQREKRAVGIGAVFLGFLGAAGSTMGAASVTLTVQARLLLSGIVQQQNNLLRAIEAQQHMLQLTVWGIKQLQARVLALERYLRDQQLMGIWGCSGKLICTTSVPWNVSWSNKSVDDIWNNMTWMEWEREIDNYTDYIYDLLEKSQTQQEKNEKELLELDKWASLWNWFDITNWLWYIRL", "assay": "biochemical", "format": "binding"}, "HIV-1 Env 89.6 gp120": {"molecular_target": "HIV-1 Env 89.6 gp120 (Human immunodeficiency virus type 1 group M subtype B, UniProt Q73372)", "sequence (Q73372 32-508)": "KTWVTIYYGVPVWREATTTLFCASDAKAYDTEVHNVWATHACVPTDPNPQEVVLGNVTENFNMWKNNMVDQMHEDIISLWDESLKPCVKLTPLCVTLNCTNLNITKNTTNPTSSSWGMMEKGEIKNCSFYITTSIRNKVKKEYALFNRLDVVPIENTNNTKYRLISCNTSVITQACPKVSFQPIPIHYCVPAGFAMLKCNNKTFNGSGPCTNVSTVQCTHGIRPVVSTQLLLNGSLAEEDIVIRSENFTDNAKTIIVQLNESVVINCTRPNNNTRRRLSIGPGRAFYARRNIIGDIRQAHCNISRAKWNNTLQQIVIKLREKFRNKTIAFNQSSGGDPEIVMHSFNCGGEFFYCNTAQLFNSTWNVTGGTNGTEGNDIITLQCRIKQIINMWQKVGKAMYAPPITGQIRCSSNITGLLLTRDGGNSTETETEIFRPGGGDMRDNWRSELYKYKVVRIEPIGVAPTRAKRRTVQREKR", "assay": "biochemical", "format": "binding, HIV-1 89.6"}, "[4]": {"system": "sCD4-gp140 (HIV 89.6 gp140)", "assay": "SPR binding of HR-2 peptides to sCD4-gp140 complex", "conditions": "SPR", "procedure": "as §1, §2\n(§3) A blank chip served as an in-line reference surface for subtraction of non-specific binding and bulk responses.\n(§4) Surface Plasmon Resonance Biosensor Measurements. SPR biosensor measurements were determined on a BIACORE 3000 (BIACORE Inc., Uppsala, Sweden) instrument. […] A blank in-line reference surface (activated and de-activated for amine coupling) was used to subtract non-specific or bulk responses. Binding of proteins and peptides (biotinylated or free DP178, T649Q26L, DP178-scrambled) was monitored in real-time at 25° C. with a continuous flow of PBS (150 mM NaCl, 0.005% surfactant p20), pH 7.4 at 10–30 μl/min. Analyte (proteins and peptides) were removed and the sensor surfaces were regenerated following each cycle of binding by single or duplicate 5–10 μl pulses of regeneration solution (10 mM glycine-HCl, pH 2.5 or 10 mM NaOH)."}, "[5]": {"molecular_target": "sCD4-gp120 (HIV 89.6 gp120) (Human immunodeficiency virus type 1 group M subtype B, UniProt Q73372)", "sequence (Q73372 32-508)": "as above", "format": "binding"}, "[6]": {"system": "T8-gp140 (HIV 89.6 gp140)", "sequence (Q73372 32-508)": "as above", "sequence (Q73372 509-680)": "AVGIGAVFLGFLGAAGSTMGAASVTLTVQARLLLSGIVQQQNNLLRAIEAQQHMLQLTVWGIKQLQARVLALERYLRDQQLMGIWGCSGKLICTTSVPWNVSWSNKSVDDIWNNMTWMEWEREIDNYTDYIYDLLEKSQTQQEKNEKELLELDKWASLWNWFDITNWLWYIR", "conditions": "SPR", "procedure": "FIG. 14A. […] FIGS. 14B and 14C. […] After stabilization of gp140 capture, either the 19b (anti-gp120 V3) or 2F5 (anti-gp41) antibodies (300 μg/ml) were injected to assess the relative amounts of gp120 and gp41 on both surfaces. FIGS. 14D–14F.\nas §3, §4"}, "[7]": {"molecular_target": "T8-gp120 (HIV 89.6 gp120) (Human immunodeficiency virus type 1 group M subtype B, UniProt Q73372)", "sequence (Q73372 32-508)": "as the sequence (Q73372 32-508) above", "format": "binding", "conditions": "SPR"}, "[8]": {"molecular_target": "sCD4 ligated gp120 in the context of membrane bound envelope", "conditions": "Hoffman et al 2000; read-out: affinity; cited from earlier work"}}, "note": "“Also recorded” adds a separate entry of the source. Read-outs that look alike come from different tables or passages of the source. No end group written: not given here.", "data": [{"substance": "89.6 gp120: soluble gp120 envelope protein of HIV 89.6 primary isolate (Clade B)", "values": [{"measurement": "off-rate (kd)", "setting": "sCD4; immobilized CD4", "result": 0.00011, "unit": "s⁻¹"}, {"measurement": "off-rate", "setting": "sCD4; immobilized sCD4, preliminary studies", "result": "1.1×10^−4 s^1"}, {"measurement": "binding to sCD4 (in words)", "setting": "sCD4; listed as HIV 89.6 gp120", "result": "most stable binding to sCD4"}, {"measurement": "binding to sCD4 (in words)", "setting": "sCD4; listed as HIV89.6 gp120", "result": "bound sCD4 most avidly"}]}, {"substance": "89.6 gp140: HIV 89.6 gp140 envelope, about 50:50 cleaved and uncleaved", "values": [{"measurement": "binding to sCD4 (in words)", "setting": "sCD4", "result": "bound sCD4 well"}]}, {"substance": "IKQIINMWQKVGKAMYAPPIS [C4]", "values": [{"measurement": "mean % blocking of DP178 binding to 89.6 gp120", "setting": "A32-gp120 (89.6 gp120); n=3", "result": 27, "unit": "%"}, {"measurement": "effect on DP178 inhibition of syncytia formation (in words)", "setting": "[1]", "result": "can reverse DP178 inhibition"}]}, {"substance": "KQIINMWQEVGKAMYACTRPNYNKRKRIHIGPGRAFYTTK [C4-V3MN]", "values": [{"measurement": "blocking of DP178 binding (in words)", "setting": "A32-gp120 (89.6 gp120)", "result": "strong blocking"}]}, {"substance": "KQIINMWQEVGKAMYATRPNNNTRERLSIGPGRAFYARR [C4-V389.6]", "values": [{"measurement": "blocking of DP178 binding (in words)", "setting": "A32-gp120 (89.6 gp120)", "result": "strong blocking"}]}, {"substance": "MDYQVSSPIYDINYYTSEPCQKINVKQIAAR [CCR5-D1]", "values": [{"measurement": "ka", "setting": "[2]", "result": 9000, "unit": "M⁻¹ s⁻¹"}, {"measurement": "kd", "setting": "[2]", "result": 0.00256, "unit": "s⁻¹"}, {"measurement": "Kd", "setting": "[2]; read-out: apparent Kd", "result": 0.28, "unit": "µM"}, {"measurement": "Kd", "setting": "[3]", "result": 1, "unit": "µM"}, {"measurement": "binding to cleaved gp140 (in words)", "setting": "[3]; absence of CD4", "result": "Low levels of constitutive binding"}, {"measurement": "kd (off-rate)", "setting": "[3]; absence of CD4", "result": 0.01, "unit": "s⁻¹"}]}, {"substance": "NNLLRAIEAQQHLLQLTVWGIKQLQARILAVERYLKDQ [DP107]", "values": [{"measurement": "binding to gp120 bound to CD4 or A32 (in words)", "setting": "HIV-1 Env 89.6 gp120", "result": "no binding was observed"}]}, {"substance": "TRPNNNTRERLSIGPGRAFYARR [V3]", "values": [{"measurement": "blocking of DP178 binding (in words)", "setting": "A32-gp120 (89.6 gp120)", "result": "no significant blocking"}]}, {"substance": "WMEWDREINNYTSLIHSLIEESQNQLEKNEQELLEL [T649Q26L]", "values": [{"measurement": "binding to sCD4-gp140 surface (in words)", "setting": "[4]", "result": "much higher binding; also recorded: marked binding"}, {"measurement": "binding to sCD4-gp120 (in words)", "setting": "[5]", "result": "specifically induced by sCD4"}, {"measurement": "binding to T8-gp140 surface (in words)", "setting": "[6]", "result": "no binding"}, {"measurement": "binding to gp120 on T8 mab surface (in words)", "setting": "[7]", "result": "neither HR-2 peptide bound"}]}, {"substance": "native CCR5: native CCR5 co-receptor, literature value", "values": [{"measurement": "Kd", "setting": "[8]", "result": 500, "unit": "µM"}]}]}
